Source: patent US6472227B1, “Barbiturate assay, tracers, immunogens, antibodies and kit” (Abbott Laboratories, priority 1986, dated 2002)

Columns and labels:
[1] = system: antibodies raised against an immunogen having the structure shown in FIG. 28; test: Fluorescence polarization immunoassay cross-reactivity in drug-free normal human urine, tracer of FIG. 5; type: binding, sheep; conditions: for amount of the test compound found in the resulting human urine: 200 ng/mL added to drug-free urine, secobarbital standard
Description: (§1) The antibodies of the present invention are prepared by eliciting a response in sheep to the immunogens described supra. The immunogen is administered to animals or to in vitro cultures of immunocompetent cells by a series of innoculations, in a manner well known to those skilled in the art.
(§2) The tracer formulation presently preferred is 150 nanomolar tracer in: 0.1 molar phosphate buffer at pH 6.2; 5% sodium 5-sulfosalicylate; 0.1% sodium azide; and 0.01% bovine gamma-globulin. The antiserum formulation comprises sheep serum diluted with: 0.1 molar tris buffer at pH 7.5; 0.1% sodium azide; 0.1% bovine gamma-globulin; and 2% ethylene glycol (volume/volume). The dilution buffer comprises: 0.1 molar sodium phosphate at pH 7.5; 0.1% sodium azide; and 0.01% bovine gamma-globulin. The pretreatment solution comprises: 0.01% bovine gamma-globulin; 0.1 molar tris buffer at pH 7.5; 0.1% sodium azide; and 10 mg/mL riboflavin binding protein.
(§3) A minimum of fifty microliters of urine is required. The calibrators, controls, or unknown samples are pipetted directly into the sample well of the TDx® or ADx® sample cartridge. […] The assay procedure from this point is fully automated.
(§4) If a manual assay is being performed, then the sample is mixed with the pretreatment solution in dilution buffer and a background reading is taken. The tracer and antibody are then mixed into the test solution. After incubation, a fluorescence polarization reading is taken.
(§5) The net fluorescence polarization value of each calibrator, control or sample is determined and is printed on the output tape of an instrument such as the Abbott TDx® Analyzer. […] The concentration of each control or sample is read off the stored calibration curve and printed on the output tape.
Cross-reactivity was tested by the method of the present invention for the commonly-used barbiturates. […]
The five columns indicate the following information:
In other words, when 200 ng of secobarbital were added to drug-free normal human urine, approximately 200 ng of secobarbital were detected in the resulting urine sample. Thus, the closer the factor is to 1.0, the more accurate the assay is with respect to the particular test compound analyzed.
The percent cross-reactivity value presented in column five was obtained by the following mathematical formula: [formula]
(§6) The five columns in Tables 4(a) and 4(b) indicate the same information as is described above for Table 3(a).

[2] = system: antibodies raised against an immunogen having the structure shown in FIG. 29; test: Fluorescence polarization immunoassay cross-reactivity, tracer of FIG. 31; type: binding, sheep; conditions: tracer FIG. 31
Description: as §1

[3] = system: antibodies raised against an immunogen having the structure shown in FIG. 29; test: Fluorescence polarization immunoassay cross-reactivity in drug-free normal human urine, tracer of FIG. 30; type: binding, sheep; conditions: for % CR / Conc. Found: tracer FIG. 30; for amount of the test compound found in the resulting human urine: 200 ng/mL added to drug-free urine, secobarbital standard
Description: as §1, §2, §3, §4, §5
Cross-reactivity was tested by the method of the present invention for the commonly-used barbiturates. In each case, compounds were assayed on the Abbott Laboratories+ TDx® Clinical Analyzer or the ADx® Drugs of Abuse System after adding a known quantity (200 ng/mL) of the barbiturate test compound to drug-free normal human urine.
as §6

[4] = Tracer stability: polarization after storage in buffer or boric acid (Table 1); type: physicochemical; set-up: Polarization (Buffer): unit not given beside the values
Text: It was unexpectedly discovered that the presence of a carbon-carbon double bond between the fluorescein moiety and the barbiturate ring portions of the novel tracers of the present invention advantageously orients the tracer for optimal interaction with the antibody.

Compound: CC(C(=O)O)c1cccc(Oc2ccccc2)c1 (centres unmarked) [Fenoprofen]
- amount of the test compound found ([1]; 215 μg/mL added): 180 ng/mL
- factor ([1]; 215 μg/mL added): 0.00084
- percent cross reactivity ([1]; 215 μg/mL added): 0.084%
- amount of the test compound found ([1]; 430 μg/mL added): 290 ng/mL
- factor ([1]; 430 μg/mL added): 0.00067
- percent cross reactivity ([1]; 430 μg/mL added): 0.067%
- % CR ([2]; Conc. Added 200 (ng/mL)): 0.02%
- Conc. Found ([2]; Conc. Added 200 (ng/mL)): 40 ng/mL
- % CR ([3]; Conc. Added 200 (ng/mL)): 0.015%
- Conc. Found ([3]; Conc. Added 200 (ng/mL)): 30 ng/mL

Compound: CCCC(C)C1(CC(=O)NCc2c(O)ccc3c2Oc2cc(O)ccc2C32OC(=O)c3ccccc32)C(=O)NC(=O)NC1=O (centres unmarked)
- Polarization (Boric Acid) ([4]; 2-8 °C, Day 0): 269.39
- Polarization (Buffer) ([4]; 2-8 °C, Day 0): 247.79
- Polarization (Boric Acid) ([4]; 2-8 °C, Day 1): 271.12
- Polarization (Buffer) ([4]; 2-8 °C, Day 1): 238.09
- Polarization (Boric Acid) ([4]; 2-8 °C, Day 7): 228.62
- Polarization (Buffer) ([4]; 2-8 °C, Day 7): 168.21
- Polarization (Boric Acid) ([4]; 45 °C, Day 1): 62.68
- Polarization (Buffer) ([4]; 45 °C, Day 1): 48.70
- Polarization (Boric Acid) ([4]; 45 °C, Day 7): > 68.68
- Polarization (Buffer) ([4]; 45 °C, Day 7): > 48.70

Compound: CCC1(c2ccccc2)C(=O)NC(=O)NC1=O [Phenobarbital]
- factor which overestimates or underestimates the compound assayed for ([1]; 200 ng/mL added): 1.05
- percent cross reactivity ([1]; 200 ng/mL added): 105%
- amount of the test compound found in the resulting human urine [1]: 210 ng/mL
- % CR ([2]; Conc. Added 1200 ng/mL): 107%
- Conc. Found ([2]; Conc. Added 1200 ng/mL): 1280 ng/mL
- factor which overestimates or underestimates the compound assayed for ([3]; 200 ng/mL added): 0.70
- percent cross reactivity ([3]; 200 ng/mL added): 70%
- amount of the test compound found in the resulting human urine [3]: 140 ng/mL
- % CR ([3]; Conc. Added 1200 ng/mL): 62%
- Conc. Found ([3]; Conc. Added 1200 ng/mL): 740 ng/mL

Compound: CCC1(CCC(C)C)C(=O)NC(=O)NC1=O [Amobarbital]
- factor which overestimates or underestimates the compound assayed for ([1]; 200 ng/mL added): 1.55
- percent cross reactivity ([1]; 200 ng/mL added): 155%
- amount of the test compound found in the resulting human urine [1]: 310 ng/mL
- % CR ([2]; Conc. Added 1200 ng/mL): 73%
- Conc. Found ([2]; Conc. Added 1200 ng/mL): 870 ng/mL
- factor which overestimates or underestimates the compound assayed for ([3]; 200 ng/mL added): 0.43
- percent cross reactivity ([3]; 200 ng/mL added): 43%
- amount of the test compound found in the resulting human urine [3]: 85 ng/mL
- % CR ([3]; Conc. Added 1200 ng/mL): 41%
- Conc. Found ([3]; Conc. Added 1200 ng/mL): 490 ng/mL

Compound: CCC1(c2ccccc2)CCC(=O)NC1=O (centres unmarked) [Glutethimide]
- amount of the test compound found ([1]; 1 μg/mL added): ND (None detected: Concentration less than the sensitivity of the assay (60 ng/mL))
- amount of the test compound found ([1]; 10 μg/mL added): 180 ng/mL
- factor ([1]; 10 μg/mL added): 0.018
- percent cross reactivity ([1]; 10 μg/mL added): 1.80%
- % CR ([2]; Conc. Added 10 (ng/mL)): 4.70%
- Conc. Found ([2]; Conc. Added 10 (ng/mL)): 470 ng/mL
- amount of the test compound found ([3]; 1 μg/mL added): 89 ng/mL
- factor ([3]; 1 μg/mL added): 0.089
- percent cross reactivity ([3]; 1 μg/mL added): 8.90%
- amount of the test compound found ([3]; 10 μg/mL added): 480 ng/mL
- factor ([3]; 10 μg/mL added): 0.048
- percent cross reactivity ([3]; 10 μg/mL added): 4.80%
- % CR ([3]; Conc. Added 10 (ng/mL)): 4.70%
- Conc. Found ([3]; Conc. Added 10 (ng/mL)): 470 ng/mL

Compound: O=C1NC(=O)C(c2ccccc2)(c2ccccc2)N1 [Phenytoin]
- amount of the test compound found ([1]; 1 μg/mL added): ND (None detected: Concentration less than the sensitivity of the assay (60 ng/mL))
- amount of the test compound found ([1]; 10 μg/mL added): 320 ng/mL
- factor ([1]; 10 μg/mL added): 0.032
- percent cross reactivity ([1]; 10 μg/mL added): 3.20%
- amount of the test compound found ([1]; 100 μg/mL added): 1020 ng/mL
- factor ([1]; 100 μg/mL added): 0.0102
- percent cross reactivity ([1]; 100 μg/mL added): 1.02%
- % CR ([2]; Conc. Added 100 (ng/mL)): 0.09%
- Conc. Found ([2]; Conc. Added 100 (ng/mL)): 90 ng/mL
- % CR ([3]; Conc. Added 100 (ng/mL)): 0.04%
- Conc. Found ([3]; Conc. Added 100 (ng/mL)): 40 ng/mL

Compound: CC(C)Cc1ccc(C(C)C(=O)O)cc1 (centres unmarked) [Ibuprofen]
- amount of the test compound found ([1]; 1 μg/mL added): ND (None detected: Concentration less than the sensitivity of the assay (60 ng/mL))
- amount of the test compound found ([1]; 10 μg/mL added): ND (None detected: Concentration less than the sensitivity of the assay (60 ng/mL))
- amount of the test compound found ([1]; 100 μg/mL added): 70 ng/mL
- factor ([1]; 100 μg/mL added): 0.0007
- percent cross reactivity ([1]; 100 μg/mL added): 0.07%
- % CR ([2]; Conc. Added 1000 (ng/mL)): 0.005%
- Conc. Found ([2]; Conc. Added 1000 (ng/mL)): 50 ng/mL
- % CR ([3]; Conc. Added 1000 (ng/mL)): 0.002%
- Conc. Found ([3]; Conc. Added 1000 (ng/mL)): 20 ng/mL

Compound: CCCC(C)C1(C/C=C/C(=O)NCc2c(O)ccc3c2Oc2cc(O)ccc2C32OC(=O)c3ccccc32)C(=O)NC(=O)NC1=O (centres unmarked) [drawing 9]
- Polarization (Buffer) ([4]; 2-8 °C, Day 0): 239.63
- Polarization (Buffer) ([4]; 2-8 °C, Day 1): 235.18
- Polarization (Buffer) ([4]; 2-8 °C, Day 7): 235.08
- Polarization (Buffer) ([4]; 45 °C, Day 1): 237.93
- Polarization (Buffer) ([4]; 45 °C, Day 7): 239.72

Compound: CCCC(C)C1(CC)C(=O)NC(=O)NC1=O (centres unmarked) [Pentobarbital]
- factor which overestimates or underestimates the compound assayed for ([1]; 200 ng/mL added): 1.05
- percent cross reactivity ([1]; 200 ng/mL added): 105%
- amount of the test compound found in the resulting human urine [1]: 210 ng/mL
- % CR ([2]; Conc. Added 1200 ng/mL): 64%
- Conc. Found ([2]; Conc. Added 1200 ng/mL): 770 ng/mL
- factor which overestimates or underestimates the compound assayed for ([3]; 200 ng/mL added): 0.65
- percent cross reactivity ([3]; 200 ng/mL added): 65%
- amount of the test compound found in the resulting human urine [3]: 129 ng/mL
- % CR ([3]; Conc. Added 1200 ng/mL): 62%
- Conc. Found ([3]; Conc. Added 1200 ng/mL): 740 ng/mL

Compound: C=CCC1(CC(C)C)C(=O)NC(=O)NC1=O [Butalbital]
- factor which overestimates or underestimates the compound assayed for ([1]; 200 ng/mL added): 1.00
- percent cross reactivity ([1]; 200 ng/mL added): 100%
- amount of the test compound found in the resulting human urine [1]: 201 ng/mL
- % CR ([2]; Conc. Added 1200 ng/mL): >167%
- factor which overestimates or underestimates the compound assayed for ([3]; 200 ng/mL added): 1.13
- percent cross reactivity ([3]; 200 ng/mL added): 113%
- amount of the test compound found in the resulting human urine [3]: 227 ng/mL
- % CR ([3]; Conc. Added 1200 ng/mL): 167%
- Conc. Found ([3]; Conc. Added 1200 ng/mL): 2000 ng/mL

Compound: Primidone
- amount of the test compound found ([1]; 1 μg/mL added): ND (None detected: Concentration less than the sensitivity of the assay (60 ng/mL))
- amount of the test compound found ([1]; 10 μg/mL added): 90 ng/mL
- factor ([1]; 10 μg/mL added): 0.009
- percent cross reactivity ([1]; 10 μg/mL added): 0.90%
- amount of the test compound found ([1]; 100 μg/mL added): 320 ng/mL
- factor ([1]; 100 μg/mL added): 0.0032
- percent cross reactivity ([1]; 100 μg/mL added): 0.32%
- % CR ([2]; Conc. Added 100 (ng/mL)): 0.24%
- Conc. Found ([2]; Conc. Added 100 (ng/mL)): 240 ng/mL
- amount of the test compound found ([3]; 10 μg/mL added): ND (None detected: Concentration less than the sensitivity of the assay (60 ng/mL))
- amount of the test compound found ([3]; 100 μg/mL added): 195 ng/mL
- factor ([3]; 100 μg/mL added): 0.00019
- percent cross reactivity ([3]; 100 μg/mL added): 0.19%
- % CR ([3]; Conc. Added 100 (ng/mL)): 0.18%
- Conc. Found ([3]; Conc. Added 100 (ng/mL)): 180 ng/mL
